Literature values as cited in article PMC9605737, “Identification of 6ω-cyclohexyl-2-(phenylamino carbonylmethylthio)pyrimidin-4(3H)-ones targeting the ZIKV NS5 RNA dependent RNA polymerase” (Frontiers in Chemistry, 2022).

Details: Figure 3; ref Shen (2015); cited from earlier work

CCc1c(C2CCCCC2)nc(SCC(=O)Nc2cc(F)cc(F)c2)[nH]c1=O [Compound 4w, 2-{[4-cyclohexyl-5-ethyl-6-oxo-1,6-dihydropyrimidin-2-yl]thio}-N-(3,5-difluorophenyl)acetamide]
CC50: > 10 µM
